Reference: US11505558B1, “Antiviral heterocyclic compounds” (Enanta Pharmaceuticals, Inc., priority 2019, dated 2022)

Legend:
[1] = system: genotype A, "Long" strain RSV; test: RSV-A assay (CPE, ATPlite readout in Hep-2 cells); format: cell-based; conditions: human respiratory syncytial virus, HEp-2, Hep-2 cells, genotype A "Long" strain RSV, MOI 0.1; read-out: Human RSV-A (“Long” strain) EC50
Summary of the method: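 Protection from RSV-induced cytopathic effect, measured as ATPlite luminescence after 5 days, gave EC50 values. Assay used genotype A Long strain at MOI 0.1 on Hep-2 cells seeded at 8,000/well in DMEM growth media with 10% FBS; compounds tested as 2-fold dilutions in duplicate.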

[2] = system: recombinant HMPV CAN97-83 (MPV-GFP1); test: HMPV antiviral assay (MPV-GFP1 eGFP fluorescence in Vero E6 cells); format: cell-based; conditions: human metapneumovirus, Vero C1008, 120 h, read-out: HMPV EC50
Protocol: HMPV antiviral activity was evaluated using a recombinant version of HMPV CAN97-83 engineered to contain the coding sequence for enhanced green fluorescence protein (eGFP) in the 3′ end of the virus genome (MPV-GFP1, ViraTree). Vero E6 cells ([…]) were seeded at a density of 12,000 cells/100 μL/well into 96-well cell plates one day prior to the assay. On the day of screening, the cell culture medium was aspirated from the wells and cells were washed twice with serum-free Eagle's Modified Essential Medium (EMEM, ATCC #) containing 1% penicillin-streptomycin (Invitrogen) (SF-EMEM). Cell washes were performed by dispensing 100 μL SF-EMEM per well and immediately aspirating the wash medium from the well. Following the second wash step, serum-free OptiMEM (Invitrogen, Cat No.) (SF-OptiMEM) containing 0.5 μg/mL TPCK-Trypsin (VENDOR) and 1% penicillin-streptomycin was added to the cells at 50 μL/well. Compounds were added into the 96-well plates using a JANUS automated liquid handling system (VENDOR). Compounds were initially diluted 1:50 into an intermediate 96-well plate containing SF-OptiMEM prior to transfer to the assay plate (25 μL/well). Each of the test compounds were tested in duplicate wells at final concentrations starting from 8 μM or 2 μM using ½ stepwise dilutions for a total of 8 points. Virus infection was performed by preparing a working stock of MPV-GFP1 at a multiplicity of infection (MOI) equal to 0.05/25 μL and aliquoting 25 μL of virus inoculum to the compound and positive control wells. SF-OptiMEM was added (25 μL/well) to the appropriate wells to serve as a virus-free negative control for the assay. The final DMSO concentration of all wells is 0.5%. Plates were incubated at 32° C., 5% CO2 for 5 days.
After 5 days incubation, eGFP fluorescence intensity was measured at […] using a Spectramax i3X plate reader (VENDOR). Percent viral inhibition was calculated using the following equation: y=[[…]−(XQ/XP)]×100 Where XQ is the fluorescence intensity measured in a well containing recombinant MPV-GFP1-infected, compound-treated cells and XP is the average fluorescence intensity measured in the wells containing untreated cells infected with recombinant virus. EC50 values were then calculated by non-linear regression using a four parameter curve logistic equation. The curve fit model employed was XLFit Dose Response One Site Model 200: y=(A+(B/(1+((x/C)^D)))) Where A is the minimum y value, B is the maximum y value, C is the log EC50 value, and D is the slope factor. […] EC50 ranges are as follows: A<0.5 μM; B>0.5 μM.

Row | SMILES | EC50 [1] [nM] | EC50 [2] [nM]
1 | COc1cc(C(=O)NCC(O)(c2cc3c(c(-c4ccc(F)cc4)n2)OC[C@]3(C)C(=O)NC2CC2)C(F)(F)F)cc2cccnc12 (some centres unmarked) [Example 27] | < 200 | < 500
2 | COc1nccc(C(=O)NC[C@](O)(c2cc3c(c(-c4ccc(F)cc4)n2)OC[C@]3(C)CNCC2CC2)C(F)(F)F)n1 [Example 34] | > 200 | > 500
3 | C[C@]1(CNCC2CC2)COc2c1cc([C@@](O)(CNC(=O)c1ccnc(C(F)(F)F)n1)C(F)(F)F)nc2-c1ccc(F)cc1 [Example 35] | > 200 | > 500
4 | COc1ncc(C(=O)NC[C@](O)(c2cc3c(c(-c4ccc(F)cc4)n2)OC[C@]3(C)CNCC2CC2)C(F)(F)F)s1 [Example 36] | > 200 | > 500
5 | COc1cc(C(=O)NC[C@](O)(c2cc3c(c(-c4ccc(F)cc4)n2)OC[C@]3(C)CNCC2CC2)C(F)(F)F)ccn1 [Example 37] | > 200 | > 500
6 | COc1cc(C(=O)NC[C@](O)(c2cc3c(c(-c4ccc(F)cc4)n2)OC[C@]3(C)CNC2(C)CC2)C(F)(F)F)cc2cccnc12 [Example 44] | < 200 | > 500
7 | CNC(=O)[C@@]1(C)COc2c1cc([C@@](O)(CNC(=O)c1cc(OC)c3ncccc3c1)C(F)(F)F)nc2-c1ccc(F)cc1 [Example 46] | < 200 | < 500
8 | COc1cc(C(=O)NC[C@](O)(c2cc3c(c(-c4ccc(F)cc4)n2)OC[C@]3(C)C(=O)NC2COC2)C(F)(F)F)cc2cccnc12 [Example 52] | < 200 | < 500
9 | COc1cc(C(=O)NC[C@](O)(c2cc3c(c(-c4ccc(F)cc4)n2)OC[C@]3(C)C(=O)NO)C(F)(F)F)cc2cccnc12 [Example 53] | < 200 | > 500
10 | CCNC(=O)[C@@]1(C)COc2c1cc([C@@](O)(CNC(=O)c1cc(OC)c3ncccc3c1)C(F)(F)F)nc2-c1ccc(F)cc1 [Example 56] | < 200 | < 500
11 | C[C@]1(C(N)=O)COc2c1cc([C@@](O)(CNC(=O)c1cc(OC3CC3)c3ncccc3c1)C(F)(F)F)nc2-c1ccc(F)cc1 [Example 61] | < 200 | < 500
12 | COc1cc(C(=O)NC[C@](O)(c2cc3c(c(-c4ccc(F)cc4)n2)OC[C@]3(C)C(N)=O)C(F)(F)F)ccc1OC1CC1 [Example 62] | < 200 | < 500
13 | COc1cc(C(=O)NC[C@](O)(c2cc3c(c(-c4ccc(F)cc4)n2)OC[C@]3(C)C(N)=O)C(F)(F)F)cc2ccccc12 [Example 69] | > 200 | > 500
14 | COc1cc(C(=O)NC[C@](O)(c2cc3c(c(-c4ccc(F)cc4)n2)OC[C@]3(C)CC#N)C(F)(F)F)cc2cccnc12 [Example 74] | < 200 | < 500
15 | COc1cc(C(=O)NC[C@](O)(c2cc3c(c(-c4ccc(F)cc4)n2)OC[C@]3(C)CC(N)=O)C(F)(F)F)cc2cccnc12 [Example 75] | < 200 | > 500
16 | C[C@]1(C(N)=O)COc2c1cc([C@](O)(CNC(=O)c1cc(OC3CC3)c3ncccc3c1)C(F)(F)F)nc2-c1ccc(F)c(Cl)c1 [Example 79] | < 200 | < 500
17 | C[C@]1(C(N)=O)COc2c1cc([C@](O)(CNC(=O)c1cc(OC3CC3)c3ncccc3c1)C(F)(F)F)nc2-c1ccc(F)c(F)c1 [Example 80] | < 200 | < 500
18 | C[C@]1(C(N)=O)COc2c1cc([C@](O)(CNC(=O)c1cc(OC3CC3)c3ncccc3c1)C(F)(F)F)nc2-c1csc2c(F)cccc12 [Example 81] | < 200 | < 500
19 | C[C@]1(C(N)=O)COc2c1cc([C@](O)(CNC(=O)c1cc(OC3CC3)c3ncccc3c1)C(F)(F)F)nc2-c1ccc(C(F)(F)F)cc1 [Example 82] | < 200 | > 500
20 | C[C@]1(C(N)=O)COc2c1cc([C@](O)(CNC(=O)c1cc(OC3CC3)c3ncccc3c1)C(F)(F)F)nc2-c1ccc(C#N)cc1 [Example 83] | < 200 | > 500

Row | SMILES | EC50 [1] [nM] | EC50 [2] [nM]
21 | C[C@]1(C(N)=O)COc2c1cc([C@@](O)(CNC(=O)c1cc(O)c3ncccc3c1)C(F)(F)F)nc2-c1ccc(F)cc1 [Example 363] |  | < 500
22 | COc1cc(C(=O)NC[C@](O)(c2cc3c(c(-c4ccc(F)cc4)n2)OC[C@]3(C)C(N)=O)C(F)(F)F)cc2cc(S(C)(=O)=O)cnc12 [Example 649] | > 200 | 
23 | COc1cc(C(=O)NC[C@](O)(c2cc3c(c(-c4ccc(F)cc4)n2)NC[C@]3(C)CO)C(F)(F)F)ccc1OCCO [Example 650] | < 200 | 
24 | C[C@]1(C(N)=O)COc2c1cc([C@@](O)(CNC(=O)c1ccc3ncc(C(F)(F)F)cc3c1)C(F)(F)F)nc2-c1ccc(F)cc1 [Example 651] | < 200 | 
25 | Cc1ccc2cc(C(=O)NC[C@](O)(c3cc4c(c(-c5ccc(F)cc5)n3)OC[C@]4(C)C(N)=O)C(F)(F)F)cc(N3CCCC3=O)c2n1 [Example 652] | > 200 | 
26 | Cc1ccc2cc(C(=O)NC[C@](O)(c3cc4c(c(-c5ccc(F)c(Cl)c5)n3)OC[C@]4(C)C(N)=O)C(F)(F)F)cc(N3CCCC3=O)c2n1 [Example 653] | > 200 | 
27 | Cn1cc2cc(C(=O)NC[C@](O)(c3cc4c(c(-c5ccc(F)cc5)n3)OC[C@]4(C)C(N)=O)C(F)(F)F)cc(F)c2n1 [Example 654] | < 200 | 
28 | CCn1cc2cc(C(=O)NC[C@](O)(c3cc4c(c(-c5ccc(F)cc5)n3)OC[C@]4(C)C(N)=O)C(F)(F)F)ccc2n1 [Example 655] | < 200 | 
29 | Cc1n[nH]c2ccc(C(=O)NC[C@](O)(c3cc4c(c(-c5ccc(F)cc5)n3)OC[C@]4(C)C(N)=O)C(F)(F)F)cc12 [Example 658] | < 200 | 
30 | Cc1cnc2c(N3CCNC3=O)cc(C(=O)NC[C@](O)(c3cc4c(c(-c5ccc(F)cc5)n3)OC[C@]4(C)C(N)=O)C(F)(F)F)cc2c1 [Example 659] | < 200 | 
31 | Cc1cc2cc(C(=O)NC[C@](O)(c3cc4c(c(-c5ccc(F)cc5)n3)OC[C@]4(C)C(N)=O)C(F)(F)F)cc(NC(=O)NC3COC3)c2nc1C [Example 660] | < 200 | 
32 | Cc1cc2cc(C(=O)NC[C@](O)(c3cc4c(c(-c5ccc(F)cc5)n3)OC[C@]4(C)C(N)=O)C(F)(F)F)cc(NC(=O)NCC(C)(C)O)c2nc1C [Example 661] | < 200 | 
33 | Cc1cc2cc(C(=O)NC[C@](O)(c3cc4c(c(-c5ccc(F)cc5)n3)OC[C@]4(C)C(N)=O)C(F)(F)F)cc(NC(=O)C3(F)CC3)c2nc1C [Example 662] | < 200 | 
34 | NC(=O)C1(F)COc2c1cc([C@@](O)(CNC(=O)c1cc(OC3CC3)c3ncccc3c1)C(F)(F)F)nc2-c1ccc(F)cc1 (some centres unmarked) [Example 665] | > 200 | 
35 | COc1cc(C(=O)NC[C@](O)(c2cc3c(c(-c4ccc(F)cc4)n2)OC[C@]3(F)C(N)=O)C(F)(F)F)ccc1OC1CC1 [Example 666] | < 200 | 
36 | COc1cc(C(=O)NC[C@](O)(c2cc3c(c(-c4ccc(F)cc4)n2)OC[C@@]3(F)C(N)=O)C(F)(F)F)ccc1OC1CC1 [Example 667] | > 200 | 
37 | COc1cc(C(=O)NC[C@](O)(c2cc3c(c(-c4ccc(F)cc4)n2)OCC3(F)C(N)=O)C(F)(F)F)cc2cc(C(F)(F)F)cnc12 (some centres unmarked) [Example 671] | < 200 | 
38 | COc1cc(C(=O)NC[C@](O)(c2cc3c(c(-c4ccc(F)cc4)n2)OCC3(F)C(N)=O)C(F)(F)F)cn2cc(C3CC3)nc12 (some centres unmarked) [Example 672] | < 200 | 
39 | C[C@@H](O)COc1ccc(C(=O)NC[C@](O)(c2cc3c(c(-c4ccc(F)cc4)n2)OC[C@]3(F)C(N)=O)C(F)(F)F)cc1OC1CC1 [Example 674] | > 200 | 
